In PubChem BioAssay (NCI):
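Grown in 96-well plates, cells were treated for 48 hours with each compound at five concentrations. Insufficient inhibition: endpoint recorded as highest concentration tested. At the TGI there is no net growth.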

Legend:
Assay in all cases: NCI-60 cell line screen, 48 h
[1] = system: A549 NSCLC
[2] = system: TK-10 renal
[3] = system: SW-620 colon
[4] = system: NCI-H522 lung
[5] = system: 786-0 renal
[6] = system: UO-31 renal
[7] = system: NCI-H226 lung
[8] = system: BT-549 breast
[9] = system: HOP-92 NSCLC
[10] = system: SN12C renal
[11] = system: SNB-19 CNS
[12] = system: RXF 393 renal
[13] = system: DU-145 prostate
[14] = system: IGROV1 ovarian
[15] = system: OVCAR-4 ovarian
[16] = system: ACHN renal
[17] = system: HCT-15 colon
[18] = system: HOP-62 NSCLC
[19] = system: MDA-MB-231 breast
[20] = system: A498 renal
[21] = system: NCI-H23 lung
[22] = system: K-562 leukemia
[23] = system: MDA-MB-435
[24] = system: SF-295 CNS
[25] = system: MDA-N
[26] = system: HCT-116 colon
[27] = system: CAKI-1 renal
[28] = system: KM12 colon
[29] = system: MALME-3M melanoma
[30] = system: SK-MEL-2 melanoma
[31] = system: MOLT-4 leukemia
[32] = system: COLO 205 colon
[33] = system: SK-MEL-5 melanoma
[34] = system: OVCAR-5 ovarian
[35] = system: UACC-257 melanoma
[36] = system: RPMI-8226 leukemia
[37] = system: SF-268 CNS
[38] = system: SNB-75 CNS
[39] = system: PC-3 prostate
[40] = system: CCRF-CEM leukemia
[41] = system: SK-OV-3 ovarian
[42] = system: UACC-62 melanoma
[43] = system: T-47D breast
[44] = system: OVCAR-8 ovarian
[45] = system: HS 578T breast
[46] = system: SR leukemia
[47] = system: NCI/ADR-RES ovarian
[48] = system: NCI-H460 lung
[49] = system: MCF7 breast
[50] = system: HCC-2998 colon
[51] = system: HL-60(TB) leukemia
[52] = system: HT29 colon
[53] = system: EKVX NSCLC
[54] = system: OVCAR-3 ovarian
[55] = system: SK-MEL-28 melanoma
[56] = system: LOX IMVI melanoma
[57] = system: U251 CNS
[58] = system: M14 melanoma
[59] = system: SF-539 CNS

Question: How did the TGI [1] turn out when CNC1=C(C)C(=O)C(=O)C([C@H](C)CCC=C(C)C)=C1O was run?
Answer: The TGI was over 100 µM.

Question: What about the TGI [2] of the same compound?
Answer: Its TGI is over 100 µM.

Question: And the TGI [3]?
Answer: The TGI was over 100 µM.

Question: And the TGI [4]?
Answer: Its TGI is 20.4 µM.

Question: And the TGI [5]?
Answer: The TGI was over 95.3 µM.

Question: And the TGI [6]?
Answer: The TGI was 49.7 µM.

Question: What about the TGI [7] of the same compound?
Answer: Its TGI is over 72.9 µM.

Question: And the TGI [8]?
Answer: Its TGI is over 100 µM.

Question: What about the TGI [9] of the same compound?
Answer: The TGI was over 100 µM.

Question: And the TGI [10]?
Answer: The TGI was over 100 µM.

Question: What about the TGI [11] of the same compound?
Answer: Its TGI is over 100 µM.

Question: And the TGI [12]?
Answer: The TGI was over 100 µM.

Question: What about the TGI [13] of the same compound?
Answer: The TGI was over 100 µM.

Question: And the TGI [14]?
Answer: The TGI was over 76.1 µM.

Question: And the TGI [15]?
Answer: Its TGI is over 77 µM.

Question: What about the TGI [16] of the same compound?
Answer: Its TGI is 39.4 µM.

Question: What about the TGI [17] of the same compound?
Answer: Its TGI is over 100 µM.

Question: And the TGI [18]?
Answer: Its TGI is over 31.6 µM.

Question: And the TGI [19]?
Answer: Its TGI is over 100 µM.

Question: And the TGI [20]?
Answer: The TGI was 62.3 µM.

Question: And the TGI [21]?
Answer: Its TGI is over 100 µM.

Question: And the TGI [22]?
Answer: Its TGI is over 100 µM.

Question: What about the TGI [23] of the same compound?
Answer: The TGI was over 100 µM.

Question: And the TGI [24]?
Answer: The TGI was over 75.7 µM.

Question: And the TGI [25]?
Answer: Its TGI is over 100 µM.

Question: And the TGI [26]?
Answer: Its TGI is over 100 µM.

Question: And the TGI [27]?
Answer: The TGI was 56.7 µM.

Question: And the TGI [28]?
Answer: The TGI was over 100 µM.

Question: And the TGI [29]?
Answer: The TGI was over 68.6 µM.

Question: What about the TGI [30] of the same compound?
Answer: Its TGI is 81.9 µM.

Question: And the TGI [31]?
Answer: The TGI was over 48.5 µM.

Question: And the TGI [32]?
Answer: The TGI was over 73.7 µM.

Question: What about the TGI [33] of the same compound?
Answer: The TGI was 41.4 µM.

Question: What about the TGI [34] of the same compound?
Answer: Its TGI is over 100 µM.

Question: And the TGI [35]?
Answer: The TGI was over 100 µM.

Question: And the TGI [36]?
Answer: Its TGI is over 94.3 µM.

Question: And the TGI [37]?
Answer: Its TGI is over 100 µM.

Question: What about the TGI [38] of the same compound?
Answer: The TGI was over 94.4 µM.

Question: What about the TGI [39] of the same compound?
Answer: The TGI was 98.7 µM.

Question: And the TGI [40]?
Answer: The TGI was over 29.4 µM.

Question: And the TGI [41]?
Answer: The TGI was 83.3 µM.

Question: What about the TGI [42] of the same compound?
Answer: The TGI was over 72.3 µM.

Question: And the TGI [43]?
Answer: Its TGI is 86.3 µM.

Question: What about the TGI [44] of the same compound?
Answer: The TGI was over 60.9 µM.

Question: What about the TGI [45] of the same compound?
Answer: Its TGI is over 91.8 µM.

Question: And the TGI [46]?
Answer: Its TGI is 71 µM.

Question: What about the TGI [47] of the same compound?
Answer: The TGI was over 38.4 µM.

Question: And the TGI [48]?
Answer: The TGI was over 100 µM.

Question: And the TGI [49]?
Answer: Its TGI is over 100 µM.

Question: What about the TGI [50] of the same compound?
Answer: Its TGI is 99.3 µM.

Question: And the TGI [51]?
Answer: Its TGI is 6.88 µM.

Question: What about the TGI [52] of the same compound?
Answer: The TGI was over 100 µM.

Question: What about the TGI [53] of the same compound?
Answer: Its TGI is over 100 µM.

Question: And the TGI [54]?
Answer: The TGI was over 100 µM.

Question: What about the TGI [55] of the same compound?
Answer: The TGI was over 100 µM.

Question: What about the TGI [56] of the same compound?
Answer: Its TGI is over 100 µM.

Question: What about the TGI [57] of the same compound?
Answer: Its TGI is over 100 µM.

Question: What about the TGI [58] of the same compound?
Answer: The TGI was over 100 µM.

Question: What does the source list for Cc1cc2c(cc1-c1cc3c(cc1C)C(C(C)C)=C(O)C(=O)/C3=C\Nc1c3ccccc3nc3ccccc13)/C(=C/Nc1c3ccccc3nc3ccccc13)C(=O)C(O)=C2C(C)C?
Answer: TGI [1]: 13.1 µM; TGI [3]: 13.3 µM; TGI [4]: 2.97 µM; TGI [5]: 14.8 µM; TGI [6]: 15.4 µM; TGI [7]: 5.53 µM; TGI [59]: 16.1 µM; TGI [8]: 20.7 µM; TGI [9]: 21.5 µM; TGI [10]: 22 µM; TGI [11]: 13.6 µM; TGI [12]: 20.1 µM; TGI [13]: 20.6 µM; TGI [14]: 11.1 µM; TGI [15]: 12.8 µM; TGI [16]: 5.91 µM; TGI [17]: 14.9 µM; TGI [18]: 16.6 µM; TGI [19]: 19 µM; TGI [20]: 21.9 µM; TGI [21]: 15 µM; TGI [23]: 17.1 µM; TGI [24]: 12.9 µM; TGI [25]: 15.8 µM; TGI [26]: 21.5 µM; TGI [28]: 14.1 µM; TGI [29]: 10.1 µM; TGI [30]: 19.2 µM; TGI [31]: 16 µM; TGI [32]: 6.72 µM; TGI [33]: 15.4 µM; TGI [34]: 16.7 µM; TGI [35]: 16.6 µM; TGI [36]: > 100 µM; TGI [37]: 14.7 µM; TGI [38]: 13 µM; TGI [39]: 12.9 µM; TGI [40]: 25.5 µM; TGI [41]: 15.9 µM; TGI [42]: 14.6 µM; TGI [43]: 26.8 µM; TGI [44]: 12.8 µM; TGI [45]: 21 µM; TGI [46]: 18.4 µM; TGI [47]: 12.9 µM; TGI [48]: 6.3 µM; TGI [49]: 11 µM; TGI [51]: 11.2 µM; TGI [52]: 5.1 µM; TGI [53]: 5.67 µM; TGI [54]: 14.5 µM; TGI [55]: 19.5 µM; TGI [57]: 13.7 µM; TGI [58]: 12.6 µM
